We go through four compounds from US12433836B2, “Parenterally administered immune enhancing drugs” (ARCUS BIOSCIENCES, INC., priority 2018, dated 2025).

Read-outs that look alike come from different tables or passages of the source.

By Vd is commonly meant the apparent volume that relates the amount in the body to the concentration in plasma or blood. What is called clearance is the rate of elimination divided by the concentration. Low readings indicate inefficient removal, high ones efficient removal.

Data set [1] is described as follows: Pharmacokinetics in preclinical species, summary across species. Type of data set: in vivo, mice, rats, dogs, monkeys. Particulars: single IV dose; for clearance (CL), in words: all preclinical species; for half-life: both sexes, CD-1 (mouse), Sprague-Dawley (rat), beagle (dog), mouse, rat, dog, cynomolgus monkey, plasma, range over preclinical species, read-out: terminal half-lives; for volume of distribution at steady state, in words: mice, rats and monkeys. The procedure:
Plasma samples were prepared by protein precipitation. […] The mixture was vortexed and then centrifuged.
Compound 1 and Compound 2 volume of distribution at steady (Vu) was low in mice, rats and monkeys, but moderate-to-high in dogs. The terminal half-lives (Ti2) of Compound 1 and Compound 2 ranged from 3.5 to 41 hours, and 6.5 to 34 hours, respectively.

Data set [2] can be described thus: Pharmacokinetics after single IV bolus dose in mice.
Experimental: (§1) At the designated time points, blood was collected into tubes containing potassium EDTA and stored on ice until processed by centrifugation. The resultant plasma was stored in a freezer maintained at approximately −80° C.
(§2) Plasma samples were prepared by protein precipitation. An aliquot of 30 to 50 μL sample was mixed with acetonitrile containing an internal standard. The mixture was vortexed and then centrifuged. The resultant supernatant was directly analyzed by a sensitive and specific analytical procedure. Analytes were separated by liquid chromatography (LC), and detected by tandem mass spectrometry (MS/MS). The lower limit of quantitation (LLOQ) was 1.0 to 5.0 ng/mL.
The nature of data set [3]: Pharmacokinetics after single IV bolus dose in rats.
Experimental: as §1, §2
The nature of data set [4]: Pharmacokinetics after single IV bolus dose in dogs. Conditions: for CL: Dog, single dose IV bolus, mean noncompartmental; for volume of distribution at steady state, in words: dogs, single IV dose; for Vd / half-life: male, beagle, dog, iv.
Experimental: as §1, §2
Data set [5] in a line: Pharmacokinetics after single IV bolus dose in monkeys.
Experimental: as §1, §2
In a further data set the test system is bladder cancer. Particulars: cited from earlier work.
The subject of data set [6] is squamous cell carcinoma of the head and neck. Conditions: recurrent or metastatic squamous cell carcinoma of the head and neck; cited from earlier work.
[7] abbreviates: female, CD-1, mouse, in vivo, iv.
The mark [8] stands for this setting: Rat, single dose IV bolus, mean noncompartmental.
Setting [9] is: male, Sprague-Dawley, rat, plasma, iv.
Where [10] appears, read: Monkey, single dose IV bolus, mean noncompartmental.
[11] abbreviates: female, CD-1, mouse, plasma, iv.
Where [12] appears, read: male, cynomolgus monkey, plasma, iv.

On to `C[C@H](Nc1cc(Cl)nc2c1cnn2[C@@H]1O[C@H](COP(=O)(O)CP(=O)(O)O)[C@@H](O)[C@H]1O)c1ccc(F)cc1` [Compound 2], for which the “clearance (CL), in words” value in data set [1] was “low”. Moreover, the half-life is 6.5 to 34 h in data set [1], 6.5 h in data set [2] (setting [7]) and 15 h in data set [4] (in vivo). For the same compound, the “volume of distribution at steady state, in words” value in data set [1] is on record as “low”; in data set [4] it was “moderate-to-high”. The Vd in data set [2] (setting [7]) was determined as 0.11 L/kg; in data set [3] (male, Sprague-Dawley, rat, in vivo, iv) it was 0.12 L/kg; in data set [4] (in vivo), 0.63 L/kg; in data set [5] (male, cynomolgus monkey, in vivo, iv), 0.078 L/kg. Besides, the values for the clearance in data set [2] (setting [7]) and in data set [3] (setting [9]) were 0.25 mL/min/kg and 0.155 mL/min/kg, respectively. Moreover, the T1/2 stood at 9.6 h in data set [3] (setting [8]) and 34 h in data set [5] (setting [10]). The CL in data set [4] stood at 0.567 mL/min/kg; in data set [5] (setting [10]) it was 0.0283 mL/min/kg.
Consider “atezolizumab: the first approved anti-PD-L1 therapy”, for which the figures for the response rate in the data set on bladder cancer (all patients) and with bladder cancer (patients with more PD-L1-positive immune cells) were 15% and 27%, respectively.
On to nivolumab: PD-1 blocking antibody, for which, in data set [6], the “estimated 1-year survival rate versus standard chemotherapy” value is recorded as “more than two-fold higher”.
Consider `C[C@H](Nc1cc(Cl)nc2c1cnn2[C@@H]1O[C@H](COP(=O)(O)CP(=O)(O)O)[C@@H](O)[C@H]1O)c1ccccc1F` [Compound 1], for which the “clearance (CL), in words” value in data set [1] is on record as “low”. The half-life in data set [1] was 3.5 to 41 h; in data set [2] (setting [11]), 3.5 h; in data set [4] (plasma) it was 21 h; in data set [5] (setting [12]), 41 h. Further, the results for the “volume of distribution at steady state, in words” value in data set [1] and in data set [4] were “low” and “moderate-to-high”, respectively. Besides, the CL in data set [2] (Mouse, single dose IV bolus, mean noncompartmental) is 0.417 mL/min/kg; in data set [3] (setting [8]) it was 0.333 mL/min/kg; in data set [4] it was 0.833 mL/min/kg; in data set [5] (setting [10]) it was 0.0417 mL/min/kg. For the same compound, the Vd in data set [2] (setting [11]) was 0.12 L/kg; in data set [3] (setting [9]), 0.12 L/kg; in data set [4] (plasma), 1.3 L/kg; in data set [5] (setting [12]) it was 0.097 L/kg. This compound also registered a T1/2 in data set [3] (setting [8]) of 5.3 h.
